# Data as given in US20110224231A1, “Novel Lactams as Beta Secretase Inhibitors” (Pfizer Inc., priority 2008, published 2011).
# pIC50: −log10 of the molar value.
# Biological target: T1, soluble human BACE (Homo sapiens, UniProt P56817)
# T1 construct: cells secreting human recombinant soluble BACE; made in house; conditioned medium
# Experiment: BACE activity Cell Free Assay (ELISA of cleaved synthetic APP substrate)
# Format: biochemical
# Experimental: A synthetic APP substrate that can be cleaved by beta˜secretase and having N-terminal biotin is used to assay beta-secretase activity in the presence or absence of the inhibitory compounds. […] The substrate and test compounds are added to 384 well polypropylene plates. The reaction is initiated by the addition of soluble BACE enzyme to a final volume of 12.5 μL per well. The final assay conditions are: 0.001˜300 μM compound inhibitor, 0.05M sodium acetate (pH 4.5), 3 μM substrate, soluble human BACE, and 2% DMSO. Concentrated conditioned media from cells secreting human recombinant soluble BACE was titrated to provide a source of BACE enzyme. The cell media can be used as either a crude BACE prep or BACE can be purified using any number of techniques, including immobilized BACE inhibitor purification columns. The assay mixture is incubated for 1 hour at 37° C., and the reaction is quenched by the addition of an equal volume of 0.1M Tris, pH 8. Half of the quenched mix is incubated on clear streptavidin coated 384 well polystyrene plates for 1 hour. An ELISA is then performed using an in˜house antibody that specifically recognizes the new C˜terminus created after cleavage by BACE. […] (These polyclonal antibodies were raised in rabbits by immunizing with antigen comprised of six amino acid residues present at the carboxy terminus of the wild-type soluble APPbeta sequence (NH2-ISEVKM-COOH) or seven amino acid residues present at the carboxy terminus of the Swedish mutation at the beta cleavage site (NH2-EISEVNL˜COOH) conjugated to keyhole limpet hemacyanin by methods known to those skilled in the art.) A secondary anti˜species Horseradish Peroxidase (HRP) conjugated antibody is then utilized. The readout, following assay development with TMB substrate and quenching with 0.09M sulfuric acid, is absorbance at 450 nm.
# T1 sequence (P56817 46-457 limits assumed): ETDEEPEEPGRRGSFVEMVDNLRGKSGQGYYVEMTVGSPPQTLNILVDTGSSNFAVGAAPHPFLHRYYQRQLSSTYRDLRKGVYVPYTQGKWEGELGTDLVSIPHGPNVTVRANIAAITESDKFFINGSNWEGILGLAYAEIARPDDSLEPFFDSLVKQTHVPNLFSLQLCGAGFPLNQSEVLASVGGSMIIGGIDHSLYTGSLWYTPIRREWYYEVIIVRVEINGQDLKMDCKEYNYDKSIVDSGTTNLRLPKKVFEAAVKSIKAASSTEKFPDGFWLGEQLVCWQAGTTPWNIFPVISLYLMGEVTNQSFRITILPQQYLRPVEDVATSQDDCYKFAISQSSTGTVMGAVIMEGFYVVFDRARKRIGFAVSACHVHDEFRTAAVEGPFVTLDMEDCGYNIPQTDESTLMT
row,SMILES,pIC50
1,"CC1CC2(CCC(=O)N2c2cccc(F)c2)CCN1Cc1nc(-c2ccc(C#N)cc2)cs1 (racemic) [Example 54, Racemic 4-(2-{[(5R,7S),(5S,7R)-1-(3-fluorophenyl)-7-methyl-2-oxo-1,8-diazaspiro[4.5]dec-8-yl]methyl}-1,3-thiazol-4-yl)benzonitrile]",3.52 to 4.00
2,"CC1CC2(CCC(=O)N2c2cccc(F)c2)CCN1Cc1cccc(Oc2ccc(Cl)cc2)c1 (racemic) [Example 55, Racemic (5R,7S),(5S,7R)-8-[3-(4-chlorophenoxy)benzyl]-1-(3-fluorophenyl)-7-methyl-1,8-diazaspiro[4.5]decan-2-one]",4.00 to 5.00
3,"CC(=O)Nc1ccc(CN2CCC3(C=CC(=O)N3c3cccc(F)c3)CC2C)cc1 (racemic) [Example 59, Racemic N-(4-{[(5R,7S),(5S,7R)-1-(3-fluorophenyl)-7-methyl-2-oxo-1,8-diazaspiro[4.5]-3-en 8-yl]methyl}phenyl)acetamide]",5.00 to 6.00
4,"CC1CC2(C=CC(=O)N2c2cccc(F)c2)CCN1Cc1ccnn1CC(F)(F)F (racemic) [Example 60, Racemic (5R,7S),(5S,7R)-1-(3-fluorophenyl)-7-methyl-8-{[1-(2,2,2-trifluoroethyl)-1H-pyrazol-5-yl]methyl}-1,8-diazaspiro[4.5]dec-3-en-2-one]",4.00 to 5.00
5,"CC1CC2(C=CC(=O)N2c2cccc(F)c2)CCN1Cc1c[nH]c2ccc(C#N)cc12 (racemic) [Example 61, Racemic 3-{[(5R,7S),(5S,7R)-1-(3-fluorophenyl)-7-methyl-2-oxo-1,8-diazaspiro[4.5]dec-3-en-8-yl]methyl}-1H-indole-5-carbonitrile]",4.00 to 5.00
6,"CC1CC2(C=CC(=O)N2c2cccc(F)c2)CCN1Cc1c[nH]c2ccc(OCc3ccccc3)cc12 (racemic) [Example 62, Racemic (5R,7S),(5S,7R)-8-{[5-(benzyloxy)-1H-indol-3-yl]methyl}-1-(3-fluorophenyl)-7-methyl-1,8-diazaspiro[4.5]dec-3-en-2-one]",4.00 to 5.00
7,"CC1CC2(C=CC(=O)N2c2cccc(F)c2)CCN1Cc1c[nH]c2cc(F)ccc12 (racemic) [Example 63, Racemic (5R,7S),(5S,7R)-8-[(6-fluoro-1H-indol-3-yl)methyl]-1-(3-fluorophenyl)-7-methyl-1,8-diazaspiro[4.5]dec-3-en-2-one]",4.00 to 5.00
8,"CC1CC2(C=CC(=O)N2c2cccc(F)c2)CCN1Cc1cccc(-n2cccn2)c1 (racemic) [Example 64, Racemic (5R,7S),(5S,7R)-1-(3-fluorophenyl)-7-methyl-8-[3-(1H-pyrazol-1-yl)benzyl]-1,8-diazaspiro[4.5]dec-3-en-2-one]",4.00 to 5.00
9,"CC1CC2(C=CC(=O)N2c2cccc(F)c2)CCN1Cc1n[nH]c2ccc(Cl)cc12 (racemic) [Example 65, Racemic (5R,7S),(5S,7R)-8-[(5-chloro-1H-indazol-3-yl)methyl]-1-(3-fluorophenyl)-7-methyl-1,8-diazaspiro[4.5]dec-3-en-2-one]",4.00 to 5.00
10,"Cc1ccc2c(CN3CCC4(C=CC(=O)N4c4cccc(F)c4)CC3C)c[nH]c2c1 (racemic) [Example 66, Racemic (5R,7S),(5S,7R)-1-(3-fluorophenyl)-7-methyl-8-[(6-methyl-1H-indol-3-yl)methyl]-1,8-diazaspiro[4.5]dec-3-en-2-one]",4.00 to 5.00
11,"CC1CC2(C=CC(=O)N2c2cccc(F)c2)CCN1Cc1c[nH]c2cc(C(F)(F)F)ccc12 (racemic) [Example 67, Racemic (5R,7S),(5S,7R)-1-(3-fluorophenyl)-7-methyl-8-{[6-(trifluoromethyl)-1H-indol-3-yl]methyl}-1,8-diazaspiro [4.5]dec-3-en-2-one]",4.00 to 5.00
12,"CC1CC2(C=CC(=O)N2c2cccc(F)c2)CCN1Cc1cccc(OCc2nc(C3CC3)no2)c1 (racemic) [Example 68, Racemic (5R,7S),(5S,7R)-8-{3-[(3-cyclopropyl-1,2,4-oxadiazol-5-yl)methoxy]benzyl}-1-(3-fluorophenyl)-7-methyl-1,8-diazaspiro[4.5]dec-3-en-2-one]",4.00 to 5.00
13,"CC(=O)Nc1ccc(CN2CCC3(CCC(=O)N3c3cccc(F)c3)CC2C)cc1 (racemic) [Example 69, Racemic N-(4-{[(5R,7S),(5S,7R)-1-(3-fluorophenyl)-7-methyl-2-oxo-1,8-diazaspiro[4.5]dec-8-yl]methyl}phenyl)acetamide]",4.00 to 5.00
14,"CC1CC2(CCC(=O)N2c2cccc(F)c2)CCN1Cc1c[nH]c2ccc(Cl)cc12 (racemic) [Example 70, Racemic (5R,7S),(5S,7R)-8-[(5-chloro-1H-indol-3-yl)methyl]-1-(3-fluorophenyl)-7-methyl-1,8-diazaspiro[4.5]decan-2-one]",4.00 to 5.00
15,"CC1CC2(C=CC(=O)N2c2cccc(F)c2)CCN1Cc1nc(-c2cccc(Cl)c2)cs1 (racemic) [Example 71, Racemic (5R,7S),(5S,7R)-8-{[4-(3-chlorophenyl)-1,3-thiazol-2-yl]methyl}-1-(3-fluorophenyl)-7-methyl-1,8-diazaspiro[4.5]dec-3-en-2-one]",4.00 to 5.00
16,"COc1cccc(-c2csc(CN3CCC4(C=CC(=O)N4c4cccc(F)c4)CC3C)n2)c1 (racemic) [Example 72, Racemic (5R,7S),(5S,7R)-1-(3-fluorophenyl)-8-{[4-(3-methoxyphenyl)-1,3-thiazol-2-yl]methyl}-7-methyl-1,8-diazaspiro[4.5]dec-3-en-2-one]",4.00 to 5.00
17,"COc1ccc(-c2csc(CN3CCC4(C=CC(=O)N4c4cccc(F)c4)CC3C)n2)cc1 (racemic) [Example 73, Racemic (5R,7S),(5S,7R)-1-(3-fluorophenyl)-8-{[4-(4-methoxyphenyl)-1,3-thiazol-2-yl]methyl}-7-methyl-1,8-diazaspiro[4.5]dec-3-en-2-one]",4.00 to 5.00
18,"CC1CC2(CCC(=O)N2c2cccc(F)c2)CCN1Cc1c[nH]c2cc(F)ccc12 (racemic) [Example 74, Racemic (5R,7S),(5S,7R)-8-[(6-fluoro-1H-indol-3-yl)methyl]-1-(3-fluorophenyl)-7-methyl-1,8-diazaspiro[4.5]decan-2-one]",3.52 to 4.00
19,"COC(=O)Nc1ccc(CN2CCC3(CCC(=O)N3c3cccc(F)c3)CC2C)cc1 (racemic) [Example 75, Racemic methyl (4-{[(5R,7S),(5S,7R)-1-(3-fluorophenyl)-7-methyl-2-oxo-1,8-diazaspiro[4.5]dec-8-yl]methyl}phenyl)carbamate]",3.52 to 4.00
20,"CC1CC2(CCC(=O)N2c2cccc(F)c2)CCN1Cc1c[nH]c2ccc(C#N)cc12 (racemic) [Example 76, Racemic 3-{[(5R,7S),(5S,7R)-1-(3-fluorophenyl)-7-methyl-2-oxo-1,8-diazaspiro[4.5]dec-8-yl]methyl}-1H-indole-5-carbonitrile]",3.52 to 4.00
21,"CC1CC2(CCC(=O)N2c2cccc(F)c2)CCN1Cc1ccnn1CC(F)(F)F (racemic) [Example 77, Racemic (5R,7S),(5S,7R)-1-(3-fluorophenyl)-7-methyl-8-{[1-(2,2,2-trifluoroethyl)-1H-pyrazol-5-yl]methyl}-1,8-diazaspiro[4.5]decan-2-one]",3.52 to 4.00
22,"CC1CC2(CCC(=O)N2c2cccc(F)c2)CCN1Cc1n[nH]c2ccc(Cl)cc12 (racemic) [Example 78, Racemic (5R,7S),(5S,7R)-8-[(5-chloro-1H-indazol-3-yl)methyl]-1-(3-fluorophenyl)-7-methyl-1,8-diazaspiro[4.5]decan-2-one]",3.52 to 4.00
23,"CC1CC2(CCC(=O)N2c2cccc(F)c2)CCN1Cc1cccc(-n2cccn2)c1 (racemic) [Example 79, Racemic (5R,7S),(5S,7R)-1-(3-fluorophenyl)-7-methyl-8-[3-(1H-pyrazol-1-yl)benzyl]-1,8-diazaspiro[4.5]decan-2-one]",3.52 to 4.00
24,"CC1CC2(C=CC(=O)N2c2cccc(F)c2)CCN1Cc1ccc(OC(F)F)c(OC2CC2)c1 (racemic) [Example 80, Racemic (5R,7S),(5S,7R)-8-[3-(cyclopropyloxy)-4-(difluoromethoxy)benzyl]-1-(3-fluorophenyl)-7-methyl-1,8-diazaspiro[4.5]dec-3-en-2-one]",3.52 to 4.00
25,"CC1CC2(CCC(=O)N2c2cccc(F)c2)CCN1Cc1nc(-c2cccc(Cl)c2)cs1 (racemic) [Example 81, Racemic (5R,7S),(5S,7R)-8-{[4-(3-chlorophenyl)-1,3-thiazol-2-yl]methyl}-1-(3-fluorophenyl)-7-methyl-1,8-diazaspiro[4.5]decan-2-one]",3.52 to 4.00
26,"COC1(OC)CC(c2cccc(CN3CCC4(C=CC(=O)N4c4cccc(F)c4)CC3C)c2)C1 (racemic) [Example 82, Racemic (5R,7S),(5S,7R)-8-[3-(3,3-dimethoxycyclobutyl)benzyl]-1-(3-fluorophenyl)-7-methyl-1,8-diazaspiro[4.5]dec-3-en-2-one]",3.52 to 4.00
27,"CC1CC2(C=CC(=O)N2c2cccc(F)c2)CCN1Cc1c[nH]c(-c2ccccc2)n1 (racemic) [Example 83, Racemic (5R,7S),(5S,7R)-1-(3-fluorophenyl)-7-methyl-8-[(2-phenyl-1H-imidazol-4-yl)methyl]-1,8-diazaspiro[4.5]dec-3-en-2-one]",3.52 to 4.00
